Reference: patent US20210070748A1, “INHIBITORS OF BRUTONS TYROSINE KINASE” (Pharmacyclics LLC, priority 2015, published 2021)

How the values were obtained:
Type in all cases: biochemical
BTK-WT = biological target: T1, BTK-WT (Homo sapiens, UniProt Q06187); experiment: Btk in vitro inhibitory activity (one of Method A TR-FRET, Method B electrophoretic mobility shift, Method C radiometric filter binding); settings: D-compounds panel data; read-out: IC50 BTK-WT
T1 construct: purified from insect cells as a full-length construct containing an N-terminal 6X-His tag; His6 (N); made in house; host or cells: insect cells (baculovirus Sf21 in Method B)

LCK = LCK (Homo sapiens, UniProt P06239); experiment: Inhibition of a panel of kinases, in vitro HotSpot kinase assay: LCK; settings: D-compounds panel data; 1 μM ATP; read-out: IC50 LCK
ITK = biological target: T2, ITK (Homo sapiens, UniProt Q08881); experiment: Inhibition of a panel of kinases, in vitro HotSpot kinase assay: ITK; settings: D-compounds panel data; 1 μM ATP
T2 sequence (Q08881 1-620): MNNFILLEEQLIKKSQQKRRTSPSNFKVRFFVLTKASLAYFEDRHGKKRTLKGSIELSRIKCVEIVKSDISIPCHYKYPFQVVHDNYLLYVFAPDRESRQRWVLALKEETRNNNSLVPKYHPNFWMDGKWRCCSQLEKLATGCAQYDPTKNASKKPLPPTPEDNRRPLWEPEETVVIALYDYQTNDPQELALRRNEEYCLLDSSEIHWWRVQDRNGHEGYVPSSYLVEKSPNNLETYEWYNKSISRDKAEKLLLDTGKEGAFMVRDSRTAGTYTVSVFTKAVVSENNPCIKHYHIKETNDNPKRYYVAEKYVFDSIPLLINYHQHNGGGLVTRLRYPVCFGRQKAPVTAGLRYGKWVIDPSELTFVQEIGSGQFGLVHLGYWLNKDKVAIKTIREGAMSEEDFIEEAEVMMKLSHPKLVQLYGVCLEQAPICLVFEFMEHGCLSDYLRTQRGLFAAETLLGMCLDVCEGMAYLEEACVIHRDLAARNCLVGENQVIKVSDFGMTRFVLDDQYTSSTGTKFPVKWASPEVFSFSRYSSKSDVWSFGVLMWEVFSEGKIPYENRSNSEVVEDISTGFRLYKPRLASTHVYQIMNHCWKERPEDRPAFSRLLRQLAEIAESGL
Description: (§1) The degree of inhibition of a panel of kinases is determined using the in vitro HotSpot kinase assay (purified enzymes, ^33P-ATP, an appropriate substrate and 1 μM ATP).

TEC = biological target: T3, TEC (Homo sapiens, UniProt P42680); experiment: Inhibition of a panel of kinases, in vitro HotSpot kinase assay: TEC; settings: D-compounds panel data; 1 μM ATP
T3 sequence (P42680 1-631): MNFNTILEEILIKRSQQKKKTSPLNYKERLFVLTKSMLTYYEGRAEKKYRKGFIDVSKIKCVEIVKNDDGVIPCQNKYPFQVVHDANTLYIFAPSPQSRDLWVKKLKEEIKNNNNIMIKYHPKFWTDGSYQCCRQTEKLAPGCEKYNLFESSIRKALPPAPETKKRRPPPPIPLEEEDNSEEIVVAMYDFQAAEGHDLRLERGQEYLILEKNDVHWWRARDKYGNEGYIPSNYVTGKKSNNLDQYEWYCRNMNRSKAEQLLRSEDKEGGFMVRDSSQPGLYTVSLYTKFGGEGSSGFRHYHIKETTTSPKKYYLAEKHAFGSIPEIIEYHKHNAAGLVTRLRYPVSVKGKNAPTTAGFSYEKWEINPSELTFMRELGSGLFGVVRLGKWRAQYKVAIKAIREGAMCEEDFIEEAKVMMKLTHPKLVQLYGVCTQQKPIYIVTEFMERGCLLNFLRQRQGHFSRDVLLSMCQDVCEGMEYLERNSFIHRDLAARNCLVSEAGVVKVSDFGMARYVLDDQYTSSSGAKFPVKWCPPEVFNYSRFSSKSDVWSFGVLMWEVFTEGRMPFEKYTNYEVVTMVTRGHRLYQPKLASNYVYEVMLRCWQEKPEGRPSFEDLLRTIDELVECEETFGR
Description: as §1

T1 sequence (Q06187 whole entry): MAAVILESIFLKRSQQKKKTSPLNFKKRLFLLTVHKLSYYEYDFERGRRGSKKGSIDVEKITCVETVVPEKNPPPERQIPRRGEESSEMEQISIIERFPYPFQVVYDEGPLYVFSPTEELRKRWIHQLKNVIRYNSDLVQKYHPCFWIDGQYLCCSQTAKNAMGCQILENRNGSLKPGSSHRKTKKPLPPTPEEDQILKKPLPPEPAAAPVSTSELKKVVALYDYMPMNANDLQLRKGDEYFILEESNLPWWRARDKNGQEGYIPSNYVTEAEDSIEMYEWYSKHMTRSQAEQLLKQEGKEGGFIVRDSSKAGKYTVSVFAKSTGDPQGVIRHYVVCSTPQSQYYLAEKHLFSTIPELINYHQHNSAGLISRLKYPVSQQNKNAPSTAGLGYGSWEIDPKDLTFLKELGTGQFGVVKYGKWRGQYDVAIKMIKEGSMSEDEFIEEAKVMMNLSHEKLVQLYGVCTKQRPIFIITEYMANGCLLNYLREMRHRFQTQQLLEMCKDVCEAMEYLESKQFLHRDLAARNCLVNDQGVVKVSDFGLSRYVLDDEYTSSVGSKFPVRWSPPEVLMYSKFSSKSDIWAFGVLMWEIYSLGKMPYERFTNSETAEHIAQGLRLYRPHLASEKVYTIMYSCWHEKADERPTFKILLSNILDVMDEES
LCK, sequence (P06239 whole entry): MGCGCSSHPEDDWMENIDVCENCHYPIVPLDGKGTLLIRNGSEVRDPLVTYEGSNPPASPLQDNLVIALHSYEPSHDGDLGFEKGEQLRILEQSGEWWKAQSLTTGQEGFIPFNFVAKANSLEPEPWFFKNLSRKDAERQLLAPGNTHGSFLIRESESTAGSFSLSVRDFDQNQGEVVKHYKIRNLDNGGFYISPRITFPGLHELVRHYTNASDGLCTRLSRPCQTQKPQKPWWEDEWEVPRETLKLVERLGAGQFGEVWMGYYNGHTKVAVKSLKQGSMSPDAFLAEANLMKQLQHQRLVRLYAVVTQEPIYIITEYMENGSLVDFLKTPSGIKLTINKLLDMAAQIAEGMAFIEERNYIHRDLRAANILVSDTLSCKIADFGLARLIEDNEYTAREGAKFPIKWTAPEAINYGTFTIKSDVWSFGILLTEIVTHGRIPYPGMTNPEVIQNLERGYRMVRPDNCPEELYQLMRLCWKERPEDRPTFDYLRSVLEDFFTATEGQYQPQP

Row | Compound | IC50 (BTK-WT) | IC50 (LCK) | IC50 (ITK) | IC50 (TEC)
1 | Cc1ccc(C(=O)N[C@@H]2CCCN(c3cnc(C(N)=O)c(Nc4cnn(C)c4)n3)[C@@H]2C)cc1 [Example D-232, 3-[(1-methyl-1H-pyrazol-4-yl)amino]-5-[(2R,3R)-2-methyl-3-(4-methylbenzamido)piperidin-1-yl]pyrazine-2-carboxamide] | ≤ 10 nM | 10 to 100 nM | 100 to 1000 nM | ≤ 10 nM
2 | C[C@H]1CC[C@@H](NC(=O)c2ccc(C(C)(C)O)cc2)CN1c1cnc(C(N)=O)c(Nc2cnn(C)c2)n1 [Example D-236, 5-[(2S,5R)-5-[4-(2-hydroxypropan-2-yl)benzamido]-2-methylpiperidin-1-yl]-3-[(1-methyl-1H-pyrazol-4-yl)amino]pyrazine-2-carboxamide] | ≤ 10 nM | 10 to 100 nM | 100 to 1000 nM | ≤ 10 nM
3 | C[C@@H]1[C@H](NC(=O)c2ccc3scnc3c2)CCCN1c1cnc(C(N)=O)c(Nc2cnn(C)c2)n1 [Example D-237, N-[(2R,3R)-1-{5-carbamoyl-6-[(1-methyl-1H-pyrazol-4-yl)amino]pyrazin-2-yl}-2-methylpiperidin-3-yl]-1,3-benzothiazole-5-carboxamide] | ≤ 10 nM | 10 to 100 nM | 100 to 1000 nM | ≤ 10 nM
4 | C[C@@H]1[C@H](NC(=O)c2ccc(C(O)(C(F)(F)F)C(F)(F)F)cc2)CCCN1c1cnc(C(N)=O)c(Nc2cnn(C)c2)n1 [Example D-240, 5-[(2R,3R)-3-[4-(1,1,1,3,3,3-hexafluoro-2-hydroxypropan-2-yl)benzamido]-2-methylpiperidin-1-yl]-3-[(1-methyl-1H-pyrazol-4-yl)amino]pyrazine-2-carboxamide] | ≤ 10 nM | 100 to 1000 nM | 100 to 1000 nM | 10 to 100 nM
5 | Cc1nc2cc(C(=O)N[C@@H]3CCCN(c4cnc(C(N)=O)c(Nc5cnn(C)c5)n4)[C@@H]3C)ccc2s1 [Example D-242, N-[(2R,3R)-1-{5-carbamoyl-6-[(1-methyl-1H-pyrazol-4-yl)amino]pyrazin-2-yl}-2-methylpiperidin-3-yl]-2-methyl-1,3-benzothiazole-5-carboxamide] | ≤ 10 nM | 100 to 1000 nM | 100 to 1000 nM | ≤ 10 nM

Results, then the compound that gave them:

Row | IC50 (BTK-WT) | IC50 (LCK) | IC50 (ITK) | IC50 (TEC) | Compound
6 | ≤ 10 nM | 100 to 1000 nM | 100 to 1000 nM | 10 to 100 nM | C[C@@H]1[C@H](NC(=O)c2ccc(SC(F)(F)F)cc2)CCCN1c1cnc(C(N)=O)c(Nc2ccc(N3CCN(C)CC3)cc2)n1 [Example D-233, 5-[(2R,3R)-2-methyl-3-{4-[(trifluoromethyl)sulfanyl]benzamido}piperidin-1-yl]-3-{[4-(4-methylpiperazin-1-yl)phenyl]amino}pyrazine-2-carboxamide]
7 | ≤ 10 nM | 10 to 100 nM | 10 to 100 nM | ≤ 10 nM | C[C@@H]1[C@H](NC(=O)c2ccc3c(cnn3C)c2)CCCN1c1cnc(C(N)=O)c(Nc2ccc(N3CCN(C)CC3)cc2)n1 [Example D-234, N-[(2R,3R)-1-(5-carbamoyl-6-{[4-(4-methylpiperazin-1-yl)phenyl]amino}pyrazin-2-yl)-2-methylpiperidin-3-yl]-1-methyl-1H-indazole-5-carboxamide]
8 | ≤ 10 nM | 100 to 1000 nM | 100 to 1000 nM | ≤ 10 nM | C[C@@H]1[C@H](NC(=O)c2ccc(C3(O)CC3)cc2)CCCN1c1cnc(C(N)=O)c(Nc2cnn(C)c2)n1 [Example D-235, 5-[(2R,3R)-3-[4-(1-hydroxycyclopropyl)benzamido]-2-methylpiperidin-1-yl]-3-[(1-methyl-1H-pyrazol-4-yl)amino]pyrazine-2-carboxamide]
9 | ≤ 10 nM | 10 to 100 nM | 100 to 1000 nM | ≤ 10 nM | Cc1nc2cc(C(=O)N[C@@H]3CCCN(c4cnc(C(N)=O)c(Nc5cnn(C)c5)n4)[C@@H]3C)ccc2o1 [Example D-238, N-[(2R,3R)-1-{5-carbamoyl-6-[(1-methyl-1H-pyrazol-4-yl)amino]pyrazin-2-yl}-2-methylpiperidin-3-yl]-2-methyl-1,3-benzoxazole-5-carboxamide]
10 | ≤ 10 nM | 10 to 100 nM | 100 to 1000 nM | ≤ 10 nM | C[C@@H]1[C@H](NC(=O)c2cnc(C(C)(C)C)s2)CCCN1c1cnc(C(N)=O)c(Nc2cnn(C)c2)n1 [Example D-239, 5-[(2R,3R)-3-(2-tert-butyl-1,3-thiazole-5-amido)-2-methylpiperidin-1-yl]-3-[(1-methyl-1H-pyrazol-4-yl)amino]pyrazine-2-carboxamide]
11 | ≤ 10 nM | 100 to 1000 nM | 1000 to 10000 nM | 10 to 100 nM | C[C@@H]1[C@H](NC(=O)c2ccc(SC(F)(F)F)cc2)CCCN1c1cnc(C(N)=O)c(Nc2cnn(C)c2)n1 [Example D-241, 3-[(1-methyl-1H-pyrazol-4-yl)amino]-5-[(2R,3R)-2-methyl-3-{4-[(trifluoromethyl)sulfanyl]benzamido}piperidin-1-yl]pyrazine-2-carboxamide]
